Experimental findings from patent US4935240A, “Benzoylaminophenoxybutanoic acid derivatives” (Ono Pharmaceutical Co., Ltd., priority 1987, dated 1990) are described below.

The target of this assay is 5α-reductase. Put plainly: 5α-reductase inhibitory activity in vitro. Format: biochemical. To be noted: rat prostate enzyme, [4-C14]testosterone + NADPH, 60 mins at 37° C. Here is the method:
5α-reductase inhibitory activity in vitro
Inhibitory activity on 5α-reductase in vitro was measured by the following test system.
The test was carried out by being referred to the method of J. Shimazaki et al [See Endocrinol, Japan., 18, 179 (1971)].
Male rats' prostate (4g) was homogenized with its 3-fold volume of 0.1 M HEPES buffer (pH 7.4) including 0.25 M cane sugar, and was centrifuged at 3000 r.p.m. for 10 mins.
The precipitate was suspended into the buffer solution described above (10 ml), and the suspension was centrifuged at 3000 r.p.m. for 5 mins. The resulting precipitated was suspended in the buffer solution (3 ml) described above and was used as a sauce of enzyme.
A reaction mixture (total volume 0.1 ml) of [4-c^14 ]testosterone (1.5n mol, 1.5×10^5 cpm), NADPH (0.5 μmol), enzyme solution (0.03 ml) described above and several kinds of concentration of the compounds in the present invention was incubated for 60 mins at 37° C. Enzyme reaction was quenched by addition of a mixture (0.4 ml) of chloroform and methanol (1:2), and the mixture was centrifuged at 2000 r.p.m. for 3 mins. The supernatant (50 μl) was spotted on silica gel thin layer plate. The spot on the plate was developed with a mixture of chloroform, methanol and acetic acid (99.2:0.6:0.2). Radioactivity of dihydrotestosterone generated on the plate was measured by TLC scanner of radio-autography and inhibitory ratio was calculated.
For orientation: IC50 means the concentration that inhibits the measured activity by half. In the case of `CCCc1ccc(CN(Cc2ccc(CCC)cc2)c2ccc(C(=O)Nc3ccccc3SCCCC(=O)O)c(C)c2)cc1` [3(b), 4-[2-[4-[N,N-bis(4-propylbenzyl)amino]-2-methylbenzoylamino]phenylthio]butanoic], the IC50 amounted to 25 nM.

Turning to `CCCc1ccc(C(Nc2ccc(C(=O)Nc3ccccc3OCCCC(=O)O)cc2)c2ccc(CCC)cc2)cc1` [2(s), 4-[2-[4-[bis(4-propylphenyl)methylamino]benzoylamino]phenoxy] butanoic acid], the IC50 turned out to be 11 nM.

Take `Cc1cc(N(Cc2ccc(CC(C)C)cc2)Cc2ccc(CC(C)C)cc2)ccc1C(=O)Nc1ccccc1OCCCC(=O)O` [2(b), 4-[2-[4-[N, N-bis(4-isobutylbenzyl)amino]-2-methylbenzoylamino]phenoxy]butanoic]: the IC50 is 25 nM.

Take `O=C(O)CCCOc1ccccc1NC(=O)c1ccc(OCCCCc2ccccc2)cc1` [Compared compound 2, reference compound]: the IC50 was greater than 20000 nM.

Turning to `CCCc1ccc(COc2ccc(C(=O)Nc3ccccc3OCCCC(=O)O)cc2)cc1` [1(d), 4-[2-[4-(4-propylphenylmethoxy)benzoylamino]phenoxy]butanoic acid], the IC50 worked out at 130 nM.

On to `Cc1cc(N(Cc2ccccc2C(F)(F)F)Cc2ccccc2C(F)(F)F)ccc1C(=O)Nc1ccccc1OCCCC(=O)O` [2(j)], for which the IC50 was 26 nM.

For the molecule `Cc1cc(NCc2ccccc2C(F)(F)F)ccc1C(=O)Nc1ccccc1OCCCC(=O)O` [2(q), 4-[2-[4-(2-trifluoromethylbenzylamino)-2-methylbenzoylamino]phenoxy] butanoic], the IC50 is 220 nM.

Consider `CCCc1ccc(CN(C(=O)c2ccc(CCC)cc2)c2ccc(C(=O)Nc3ccccc3OCCCC(=O)O)c(C)c2)cc1` [2(i)], for which the IC50 is 150 nM.

Consider `CCCc1ccc(CNc2ccc(C(=O)Nc3ccccc3OCCCC(=O)O)c(C)c2)cc1` [2(n), 4-[2-[4-(4-propylbenzylamino)-2-methylbenzoylamino]phenoxy] butanoic acid], for which the IC50 came out at 40 nM.

With `CCCc1ccc(CN(C)c2ccc(C(=O)Nc3ccccc3OCCCC(=O)O)c(C)c2)cc1` [2(e), 4-[2-[4-[N-methyl-N-(4-propylbenzyl)amino]-2-methylbenzoylamino]phenoxy]butanoic], the IC50 was determined as 44 nM.

Regarding `Cc1cc(NC(C)c2ccc(CC(C)C)cc2)ccc1C(=O)Nc1ccccc1OCCCC(=O)O` (centres unmarked) [2(o), 4-[2-[4-[1-(4-isobutylphenyl)ethylamino]-2-methylbenzoylamino]pehnoxy]butanoic], the IC50 is 35 nM.

Turning to `CCc1ccc(COc2ccc(C(=O)Nc3ccccc3OCCCC(=O)O)cc2)cc1` [1(c), 4-[2-[4-(4-ethylphenylmethoxy)benzoylamino]phenoxy]butanoic acid], the IC50 is 320 nM.

As for `CN(Cc1ccc(C(=O)Nc2ccccc2OCCCC(=O)O)cc1)c1cccc2c1CCCC2` [6(c), 4-[2-[4-[N-methyl-N-(5,6,7,8,- tetrahydronaphthalene-1-yl)aminomethyl]benzoylamino]phenoxy] butanoic acid], the IC50 was determined as 140 nM.

As to `O=C(O)CCCOc1ccccc1NC(=O)c1ccc(OCCCc2ccccc2)cc1` [1(f), 4-[2-[4-(3-phenylpropoxy)benzoylamino]phenoxy]butanoic acid], the IC50 worked out at 200 nM.

Turning to `O=C(O)CCCOc1ccccc1NC(=O)c1ccc(OCc2ccccc2)cc1` [1(a), 4-[2-(4-benzyloxybenzoylamino)phenoxy]butanoic acid], the IC50 worked out at 200 nM.

On to `CC(C)Cc1ccc(COc2ccc(C(=O)Nc3ccccc3OCCCC(=O)O)cc2)cc1` [Example 1, 4-[2-[4-(4-isobutylphenylmethoxy)benzoylamino]phenoxy]butanoicacid], for which the half-maximal inhibitory concentration (IC50) was determined as 80 nM.

Turning to `CC(C)c1ccc(COc2ccc(C(=O)Nc3ccccc3OCCCC(=O)O)cc2)cc1` [1(e), 4-[2-[4-(4-isopropylphenylmethoxy)benzoylamino]phenoxy]butanoic acid], the IC50 came out at 220 nM.

Regarding `O=C(O)CCCOc1ccccc1NC(=O)c1ccc(OCCCCc2ccccc2)cc1` [1(g), 4-[2-[4-(4-phenylbutoxy)benzoylamino]phenoxy]butanoic acid], the IC50 is 440 nM.

With `CCCc1ccc(C(Nc2ccc(C(=O)Nc3ccccc3OCCCC(=O)O)c(C)c2)c2ccc(CCC)cc2)cc1` [2(r), 4-[2-[4-[bis(4-propylphenyl)methylamino]-2-methylbenzoylamino]phenoxy] butanoic], the IC50 was found to be 2.5 nM.

For the molecule `Cc1cc(OCc2ccc(CC(C)C)cc2)ccc1C(=O)Nc1ccccc1OCCCC(=O)O` [1(h), 4-[2-[4-(4-isobutyphenylmethoxy)-2-methylbenzoylamino]phenoxy]butanoic acid], the IC50 is 570 nM.

For `CCCc1ccc(C(Oc2ccc(C(=O)Nc3ccccc3OCCCC(=O)O)c(C)c2)c2ccc(CCC)cc2)cc1` [4(b), 4-[2-[4-[bis(4-propylphenyl)methoxy]-2-methylbenzoylamino]phenoxy]butanoic], the IC50 was 6.5 nM.

With `CC(C)Cc1ccc(CNc2ccc(C(=O)Nc3ccccc3OCCCC(=O)O)cc2)cc1` [2(l), 4-[2-[4-(4-isobutylbenzylamino)benzoylamino]phenoxy] butanoic acid], the IC50 amounted to 150 nM.

As to `CCCCCN(Cc1ccc(CCC)cc1)c1ccc(C(=O)Nc2ccccc2OCCCC(=O)O)c(C)c1` [2(d)], the IC50 was 25 nM.

Regarding `Cc1cc(N(Cc2ccc(C(F)(F)F)cc2)Cc2ccc(C(F)(F)F)cc2)ccc1C(=O)Nc1ccccc1OCCCC(=O)O` [2(k), 4-[2-[4-[N,N-bis-(4-trifluoromethylbenzyl)amino]-2-methylbenzoylamino]phenoxy] butanoic], the IC50 amounted to 580 nM.

As to `CCCCCN(CCCCC)c1ccc(C(=O)Nc2ccccc2OCCCC(=O)O)c(C)c1` [2(c), 4-[2-[4-[N, N-dipenthylamino)-2-methylbenzoylamino]phenoxy] butanoic acid], the IC50 worked out at 300 nM.

With `CCCc1ccc(CN(Cc2ccc(CCC)cc2)c2ccc(C(=O)Nc3ccccc3OCCCC(=O)O)c(C)c2)cc1` [Example 2, 4-[2-[2-methyl-4-[N,N-bis(4-propylbenzyl)amino]benzoylamino]phenoxy]butanoic acid], the IC50 came to 11 nM.

On to `Cc1ccc(COc2ccc(C(=O)Nc3ccccc3OCCCC(=O)O)cc2)cc1` [1(b), 4-[2-[4-(4-methylphenylmethoxy)benzoylamino]phenoxy]butanoic acid], for which the IC50 worked out at 330 nM.

`Cc1cc(NCc2ccc(C(C)C)cc2)ccc1C(=O)Nc1ccccc1OCCCC(=O)O` [2(p), 4-[2-[4-(4-isopropylbenzylamino)-2-methylbenzoylamino]phenoxy] butanoic acid]: the IC50 is 80 nM.

`O=C(O)CCCOc1ccccc1NC(=O)c1ccc(CNc2cccc3c2CCCC3)cc1` [6(b), 4-[2-[4-(5,6,7,8-tetrahydronaphthalene-1-yl)aminomethylbenzoylamino]phenoxy] butanoic]: the IC50 came out at 230 nM.

Consider `Cc1cc(N(Cc2ccc(F)cc2F)Cc2ccc(F)cc2F)ccc1C(=O)Nc1ccccc1OCCCC(=O)O` [2(h)], for which the IC50 stood at 140 nM.

Take `CCCc1ccc(CN(Cc2ccc(CCC)cc2)c2ccc(C(=O)Nc3ccccc3[S+]([O-])CCCC(=O)O)c(C)c2)cc1` (centres unmarked) [Example 5, 4-[2-[4-[N,N-bis(4-propylbenzyl)amino]-2-methylbenzoylamino]phenylsulfinyl]butanoic acid]: the IC50 came out at 65 nM.

Turning to `Cc1cc(N(Cc2ccc(C(C)C)cc2)Cc2ccc(C(C)C)cc2)ccc1C(=O)Nc1ccccc1OCCCC(=O)O` [2(g), 4-[2-[4-[N, N-bis(4-isopropylbenzyl)amino]-2-methylbenzoylamino]phenoxy] butanoic], the IC50 worked out at 27 nM.

With `Cc1cc(NCc2ccc(CC(C)C)cc2)ccc1C(=O)Nc1ccccc1OCCCC(=O)O` [2(m), 4-[2-[4-(4-isobutylbenzylamino)-2-methylbenzoylamino]phenoxy] butanoic acid], the IC50 is 120 nM.

Consider `Cc1cc(N(CCCCc2ccccc2)CCCCc2ccccc2)ccc1C(=O)Nc1ccccc1OCCCC(=O)O` [2(f), 4-[2-[4-[N, N-bis(4-phenylbutyl)amino]-2-methylbenzoylamino]phenoxy]butanoic], for which the IC50 came out at 170 nM.

In the case of `CCCc1ccc(C(Oc2ccc(C(=O)Nc3ccccc3OCCCC(=O)O)cc2)c2ccc(CCC)cc2)cc1` [4(a), 4-[2-[4-[bis(4-propylphenyl)methoxy]benzoylamino]phenoxy] butanoic acid], the IC50 is 3 nM.

Regarding `CCCc1ccc(CNc2ccc(C(=O)Nc3ccccc3SCCCC(=O)O)c(C)c2)cc1` [3(a), 4-[2-[4-(4-propylbenzylamino)-2-methylbenzoylamino]phenylthio] butanoic acid], the IC50 stood at 56 nM.

Turning to `CCCc1ccc(CN(Cc2ccc(CCC)cc2)c2ccc(C(=O)Nc3ccccc3OCCCC(=O)O)cc2)cc1` [2(a), 4-[2-[4-[N, N-bis(4-propylbenzyl)amino]benzoylamino]phenoxy] butanoic acid], the IC50 was 23 nM.

Take `Cc1cc(C(=O)Nc2ccccc2OCCCC(=O)O)ccc1OCc1ccc(CC(C)C)cc1` [1(i), 4-[2-[4-(4-isobutyphenylmethoxy)-3-methylbenzoylamino]phenoxy]butanoic acid]: the IC50 came to 430 nM.
